Calls of active or inactive are those of the source. The rule behind the calls is not given here.
Experiments:
Mus musculus [1] = assay: Anti-colitis activity against DSS-induced ulcerative colitis C57BL/6 mouse model assessed as decrease in TNF-alpha mRNA expression level in colon at 12.5 to 25 mg/kg, po for 10 days consecutively by qPCR analysis; assay type: functional, organism-based; conditions: dose 12.5-25 mg/kg, time 10.0 day
Mus musculus [2] = assay: Anti-colitis activity against DSS-induced ulcerative colitis C57BL/6 mouse model assessed as downregulation of IL10 mRNA expression level in colon at 6.25 to 25 mg/kg, po for 10 days consecutively by qPCR assay; assay type: functional, organism-based; conditions: dose 6.25-25 mg/kg, time 10.0 day
Mus musculus [3] = assay: Anti-colitis activity against DSS-induced ulcerative colitis C57BL/6 mouse model assessed as downregulation of RORC mRNA expression level in mesenteric lymph nodes at 12.5 to 25 mg/kg, po for 10 days consecutively by qPCR assay; assay type: functional, organism-based; conditions: dose 12.5-25 mg/kg, time 10.0 day
CD4+ve Th [4] = assay: Inhibition of aerobic glycolysis in anti-CD3/CD28 stimulated C57BL/6 mouse mesenteric lymph node CD4+ve Th cells assessed as downregulation of Pfk1 mRNA expression level at 0.3 to 3 uM incubated for 96 hrs in presence of recombinant human TGF-beta, recombinant mouse IL-6 and recombinant mouse IL-23 by qPCR analysis; assay type: functional, cell-based; conditions: dose 0.3-3 µM
Mus musculus [5] = assay: Anti-colitis activity against DSS-induced ulcerative colitis C57BL/6 mouse model assessed as decrease in MPO level in colon at 12.5 to 25 mg/kg, po for 10 days consecutively; assay type: functional, organism-based; conditions: dose 12.5-25 mg/kg, time 10.0 day
CD4+ve Th [6] = assay: Inhibition of aerobic glycolysis in anti-CD3/CD28 stimulated C57BL/6 mouse mesenteric lymph node CD4+ve Th cells assessed as downregulation of Glut1 protein expression level at 0.3 to 3 uM incubated for 96 hrs in presence of recombinant human TGF-beta, recombinant mouse IL-6 and recombinant mouse IL-23 by Western blot analysis; assay type: functional, cell-based; conditions: dose 0.3-3 µM
[7] = Cmax in Sprague-Dawley rat at 8 mg/kg,iv and measured upto 24 hrs by LC-MS/MS analysis; assay type: ADME, organism-based; design: time < 24 hrs, dose 8 mg/kg, route iv; conditions: in vivo
[8] = Protein binding in rat plasma assessed as bound fraction; assay type: ADME, cell-free; conditions: read-out: PPB (converted)
CD4+ve Th [9] = assay: Inhibition of Th17 cells differentiation in anti-CD3/CD28 stimulated C57BL/6 mouse mesenteric lymph node CD4+ve Th cells assessed as downregulation of RORC mRNA expression level at 0.1 to 3 uM incubated for 96 hrs in presence of recombinant human TGF-beta, recombinant mouse IL-6 and recombinant mouse IL-23 by qPCR analysis; assay type: functional, cell-based; conditions: dose 0.1-3 µM
[10] = Inhibition of Treg cells differentiation in anti-CD3/CD28 stimulated C57BL/6 mouse mesenteric lymph node CD4+ve Th cells assessed as decrease in proportion of Foxp3-positive Treg cells at 1 uM incubated for 96 hrs in presence of recombinant human TGF-beta by flow cytometry (Rvb= 21.1%); assay type: functional; conditions: C57BL/6, CD4+ve Th
Mus musculus [11] = assay: Anti-colitis activity against DSS-induced ulcerative colitis C57BL/6 mouse model assessed as decrease in percentage of Th17 cells in colonic lamina propria at 12.5 to 25 mg/kg, po for 10 days consecutively by flow cytometry; assay type: functional, organism-based; conditions: dose 12.5-25 mg/kg, time 10.0 day
[12] = Toxicity in C57BL/6 mouse assessed as histological change in lung at 6.25 to 25 mg/kg, po for 10 days consecutively by H and E staining based microscopy; assay type: organism-based; conditions: in vivo, 240 h, dose 6.25-25 mg/kg, time 10 day
CD4+ve Th [13] = assay: Inhibition of aerobic glycolysis in anti-CD3/CD28 stimulated C57BL/6 mouse mesenteric lymph node CD4+ve Th cells assessed as downregulation of PFK1 protein expression level at 0.3 to 3 uM incubated for 96 hrs in presence of recombinant human TGF-beta, recombinant mouse IL-6 and recombinant mouse IL-23 by Western blot analysis; assay type: functional, cell-based; conditions: dose 0.3-3 µM
[14] = Tmax in Sprague-Dawley rat at 75 mg/kg,po and measured upto 24 hrs by LC-MS/MS analysis; assay type: ADME, organism-based; conditions: in vivo
CD4+ve Th [15] = assay: Inhibition of Th17 cells differentiation in anti-CD3/CD28 stimulated C57BL/6 mouse mesenteric lymph node CD4+ve Th cells assessed as downregulation of IL17f mRNA expression level at 0.1 to 3 uM incubated for 96 hrs in presence of recombinant human TGF-beta, recombinant mouse IL-6 and recombinant mouse IL-23 by qPCR analysis; assay type: functional, cell-based; conditions: dose 0.1-3 µM
[16] = Genotoxicity in Salmonella typhimurium by AMES test; assay type: toxicity; conditions: salmonella enterica subsp. enterica serovar typhimurium
[17] = Inhibition of Treg cells differentiation in anti-CD3/CD28 stimulated C57BL/6 mouse mesenteric lymph node CD4+ve Th cells assessed as decrease in proportion of Foxp3-positive Treg cells at 0.1 uM incubated for 96 hrs in presence of recombinant human TGF-beta by flow cytometry (Rvb= 21.1%); assay type: functional; conditions: C57BL/6, CD4+ve Th
[18] = Inhibition of Treg cells differentiation in anti-CD3/CD28 stimulated C57BL/6 mouse mesenteric lymph node CD4+ve Th cells assessed as decrease in proportion of Foxp3-positive Treg cells at 0.3 uM incubated for 96 hrs in presence of recombinant human TGF-beta by flow cytometry (Rvb= 21.1%); assay type: functional; conditions: C57BL/6, CD4+ve Th
[19] = Inhibition of Th17 cells differentiation in anti-CD3/CD28 stimulated C57BL/6 mouse mesenteric lymph node CD4+ve Th cells assessed as decrease in proportion of IL17A-positive Th17 cells at 3 uM incubated for 96 hrs in presence of recombinant human TGF-beta, recombinant mouse IL-6 and recombinant mouse IL-23 by flow cytometry (Rvb= 16.7%); assay type: functional; conditions: C57BL/6, CD4+ve Th
Mus musculus [20] = assay: Anti-colitis activity against DSS-induced ulcerative colitis C57BL/6 mouse model assessed as reduction in inflammatory cell infiltration in colon at 12.5 to 25 mg/kg, po for 10 days consecutively by H and E staining based microscopic analysis; assay type: functional, organism-based; conditions: dose 12.5-25 mg/kg, time 10.0 day
[21] = Toxicity in C57BL/6 mouse assessed as body weight change at 6.25 to 25 mg/kg, po for 10 days consecutively; assay type: organism-based; conditions: in vivo, 240 h, dose 6.25-25 mg/kg, time 10 day
CD4+ve Th [22] = assay: Inhibition of Th17 cells differentiation in anti-CD3/CD28 stimulated C57BL/6 mouse mesenteric lymph node CD4+ve Th cells assessed as downregulation of IL23r mRNA expression level at 0.1 to 3 uM incubated for 96 hrs in presence of recombinant human TGF-beta, recombinant mouse IL-6 and recombinant mouse IL-23 by qPCR analysis; assay type: functional, cell-based; conditions: dose 0.1-3 µM
CD4+ve Th [23] = assay: Effect on apoptosis in C57BL/6 mouse mesenteric lymph node CD4+ve Th cells assessed as apoptotis rate at 0.3 to 3 uM incubated for 96 hrs by Annexin-V/PI staining based flow cytometry; assay type: functional, cell-based; conditions: dose 0.3-3 µM
[24] = Microsomal stability in rat liver microsomes assessed as hepatic clearance; assay type: ADME, Microsome
Mus musculus [25] = assay: Anti-colitis activity against DSS-induced ulcerative colitis C57BL/6 mouse model assessed as downregulation of IL17a mRNA expression level in colon at 12.5 to 25 mg/kg, po for 10 days consecutively by qPCR assay; assay type: functional, organism-based; conditions: dose 12.5-25 mg/kg, time 10.0 day
Mus musculus [26] = assay: Anti-colitis activity against TNBS-induced ulcerative colitis BALB/c mouse model assessed as decrease in inflammatory injury by measuring MPO level at 12.5 to 25 mg/kg, po for consecutive 7 days; assay type: functional, organism-based; conditions: dose 12.5-25 mg/kg, time 7.0 day
Mus musculus [27] = assay: Anti-colitis activity against TNBS-induced ulcerative colitis BALB/c mouse model assessed as increase in colon length at 12.5 to 25 mg/kg, po for consecutive 7 days; assay type: functional, organism-based; conditions: dose 12.5-25 mg/kg, time 7.0 day

Compound: C=C1C(=O)O[C@H]2[C@H]1CC[C@@]1(C)[C@@H](CC[C@@]3(C)O[C@@H]23)C1(F)F
- Activity (Mus musculus [1]): Active
- Activity (Mus musculus [2]): inactive
- Activity (Mus musculus [3]): Active
- inhibition (CD4+ve Th [4]): Active
- Activity (Mus musculus [5]): Active
- inhibition (CD4+ve Th [6]): Active
- Cmax [7]: 190 ng/mL
- fraction unbound [8]: 0.201
- inhibition (CD4+ve Th [9]): Active
- Foxp3+ cells at 1 µM [10]: 22.8%
- Activity (Mus musculus [11]): Active
- Activity [12]: Non-Toxic
- inhibition (CD4+ve Th [13]): Active
- Tmax [14]: 6 h
- inhibition (CD4+ve Th [15]): Active
- Activity [16]: Non-Toxic
- Foxp3+ cells at 0.1 µM [17]: 20.3%
- Foxp3+ cells at 0.3 µM [18]: 18.4%
- IL17A+ cells at 3 µM [19]: 4.26%
- Activity (Mus musculus [20]): Active
- Activity [21]: Non-Toxic
- inhibition (CD4+ve Th [22]): Active
- Activity (CD4+ve Th [23]): inactive
- CLhep predicted [24]: 43.1 mL/min/kg
- Activity (Mus musculus [25]): Active
- Activity (Mus musculus [26]): Active
- Activity (Mus musculus [27]): Active

— ChEMBL document CHEMBL5338738, “Discovery of Novel Sesquiterpene Lactone Derivatives as Potent PKM2 Activators for the Treatment of Ulcerative Colitis” (J Med Chem, 2023)
